Data as given in ChEMBL document CHEMBL1201862, “PubChem BioAssay data set” (2004).
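Grown in 96-well plates, cells were treated for 48 hours with each compound at five concentrations. Insufficient inhibition: endpoint recorded as highest concentration tested. GI50 is the concentration that inhibits growth by half.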 Calls of active or inactive are those of the source. No stated cut-off is given here; in the data, active = GI50 up to about 1.1 µM and inactive = higher.

Assays:
Test in all cases: NCI anticancer screen, dose series, 48 h
NCI-H522 = tested on: NCI-H522
SF-539 = tested on: SF-539
ACHN = tested on: ACHN
HCT-15 = tested on: HCT-15
TK-10 = tested on: TK-10
HL-60 = tested on: HL-60
A549 = tested on: A549
HCC 2998 = tested on: HCC 2998
OVCAR-4 = tested on: OVCAR-4
SNB-75 = tested on: SNB-75
RPMI-8226 = tested on: RPMI-8226
HOP-92 = tested on: HOP-92
SK-MEL-28 = tested on: SK-MEL-28
M14 = tested on: M14
M19-MEL = tested on: M19-MEL
NCI/ADR-RES = tested on: NCI/ADR-RES
DU-145 = tested on: DU-145
MDA-N = tested on: MDA-N
MDA-MB-435 = tested on: MDA-MB-435
Hs-578T = tested on: Hs-578T

Compound | GI50 (NCI-H522) | GI50 (SF-539) | GI50 (ACHN) | GI50 (HCT-15) [µM] | GI50 (TK-10) | GI50 (HL-60) | GI50 (A549) | GI50 (HCC 2998) | GI50 (OVCAR-4) | GI50 (SNB-75) | GI50 (RPMI-8226) | GI50 (HOP-92) | GI50 (SK-MEL-28) | GI50 (M14) | GI50 (M19-MEL) | GI50 (NCI/ADR-RES) | GI50 (DU-145) | GI50 (MDA-N) | GI50 (MDA-MB-435) | GI50 (Hs-578T)
S=c1sc2cscc2s1 | 19.3 µM (inactive) | 23 µM (inactive) | 19.4 µM (inactive) | 34 | 23 µM (inactive) | 28.1 µM (inactive) | 19.5 µM (inactive) | 18.7 µM (inactive) | 16.4 µM (inactive) | 16.7 µM (inactive) | 47.6 µM (inactive) | 24.8 µM (inactive) | 21.9 µM (inactive) | 19.1 µM (inactive) | 18.5 µM (inactive) | – | – | – | – | –
CC(=O)OCC1OC(n2cc(F)c(=O)[nH]c2=O)C(N)C(OC(C)=O)C1OC(C)=O (stereo not drawn) | > 100 µM (inactive) | > 100 µM (inactive) | – | > 100 | – | > 100 µM (inactive) | > 100 µM (inactive) | > 100 µM (inactive) | > 100 µM (inactive) | > 100 µM (inactive) | > 100 µM (inactive) | > 100 µM (inactive) | – | – | > 100 µM (inactive) | > 100 µM (inactive) | – | – | – | –
O=C1CSc2sc(=S)sc2S1 | > 61.7 µM (inactive) | > 100 µM (inactive) | – | > 79.3 | – | > 61.5 µM (inactive) | 50.8 µM (inactive) | > 80.2 µM (inactive) | > 59.3 µM (inactive) | > 100 µM (inactive) | 78.9 µM (inactive) | > 100 µM (inactive) | > 100 µM (inactive) | – | > 100 µM (inactive) | > 66.8 µM (inactive) | – | – | – | –
Cc1[nH]c(=O)[nH]c(=O)c1/C=C/C(=O)NC(CO)C[S+]([O-])C[S+](C)[O-] (stereo not drawn) | 9.51 µM (inactive) | 13.9 µM (inactive) | – | 44.3 | – | 16.7 µM (inactive) | 24.4 µM (inactive) | 9.62 µM (inactive) | 2.17 µM (inactive) | 7.18 µM (inactive) | 34.8 µM (inactive) | 9.73 µM (inactive) | 17.8 µM (inactive) | – | 15 µM (inactive) | 24.8 µM (inactive) | – | – | – | –
CN(C)C(=S)/N=c1\ss/c(=N\S(=O)(=O)c2ccccc2)n1-c1ccccc1 | 0.0855 µM (active) | 19.7 µM (inactive) | 24.2 µM (inactive) | 7.28 | 40.1 µM (inactive) | 4.33 µM (inactive) | 14.1 µM (inactive) | 38.8 µM (inactive) | 0.185 µM (active) | > 100 µM (inactive) | 0.344 µM (active) | 14.7 µM (inactive) | 63.7 µM (inactive) | 20.6 µM (inactive) | 19.4 µM (inactive) | – | – | – | – | –
COc1ccc(C2=C(Cl)c3cc(OC)c(OC)cc3C2Cl)cc1 (stereo not drawn) | 12.5 µM (inactive) | 15.3 µM (inactive) | 13.9 µM (inactive) | 12.3 | 19.7 µM (inactive) | 3.03 µM (inactive) | 15.4 µM (inactive) | 14.3 µM (inactive) | 13.6 µM (inactive) | 0.499 µM (active) | 8.17 µM (inactive) | 12.2 µM (inactive) | 16 µM (inactive) | 17.2 µM (inactive) | 18.2 µM (inactive) | 12.7 µM (inactive) | 17.9 µM (inactive) | 10.1 µM (inactive) | 12.3 µM (inactive) | 17.3 µM (inactive)
